Reference: patent publication US9290447B2, “(20R) and (20S)-24-(p-toluenesulfonyloxy)-25,26,27-trinorvitamin D3 analogs and their uses” (Wisconsin Alumni Research Foundation, priority 2011, dated 2016)

How the values were obtained:
HL-60 leukemia cells = assay: Cell viability, HL-60 leukemia cells; format: cell-based, human; conditions: four days growth, methylene blue; FIG. 4A/4B
Method: (§1) Various cell lines were plated, administered a range of drug concentrations one time, allowed to grow for four days and then the number of cells present counted and expressed as a percentage of those present in the vehicle control plates. […] The number of live cells was expressed as a percentage of the total present. Each assay was done in duplicate.

[1] = test system: DU-145 prostate cancer cells; assay: Cell viability, DU-145 prostate cancer cells; format: cell-based; conditions: four days growth, methylene blue; FIG. 6
Method: as §1

[2] = test system: H-82 lung carcinoma cells; assay: Cell viability, H-82 lung carcinoma cells; format: cell-based; conditions: four days growth, methylene blue; FIG. 5A/5B
Method: as §1

vitamin D-deficient rats [3] = assay: Bone calcium mobilization (serum calcium); format: in vivo, rat; conditions: rats on 0.02% Ca diet, FIG. 9
Method: (§2) Male, weanling Sprague-Dawley rats were placed on Diet 11 (Suda et al, J. Nutr. 100:1049, 1970) (0.47% Ca)+AEK oil for one week followed by Diet 11 (0.02% Ca)+AEK oil for 3 weeks. The rats were then switched to the same diet containing 0.47% Ca for one week followed by two weeks on the same diet containing 0.02% Ca. Dose administration began during the last week on 0.02% calcium diet. Four consecutive intraperitoneal (ip) doses were given approximately 24 hours apart. Twenty-four hours after the last dose, blood was collected from the severed neck and the concentration of serum calcium determined by atomic absorption spectrometry as a measure of bone calcium mobilization. The first 10 cm of the intestine was also collected for intestinal calcium transport analysis using the everted gut sac method.

[4] = test system: ROS 17/2.8 bone cancer cells; assay: Cell viability, ROS 17/2.8 bone cancer cells; format: cell-based; conditions: four days growth, methylene blue; FIG. 7
Method: as §1

vitamin D-deficient rats [5] = assay: Intestinal calcium transport (everted gut sac method); format: in vivo, rat; conditions: 4 consecutive ip doses, FIG. 10
Method: as §2

[6] = test system: 24-hydroxylase (24Ohase) gene promoter; assay: In vitro transcription assay (24-hydroxylase promoter luciferase reporter in ROS 17/2.8 bone cells); format: cell-based; conditions: FIG. 3
Method: Cells were given a range of doses. Sixteen hours alter dosing the cells were harvested and luciferase activities were measured using a luminometer. RLU=relative luciferase units.

[7] = target: T1, full-length recombinant rat vitamin D receptor (Rattus norvegicus, UniProt P13053); assay: Vitamin D receptor competitive binding with [3H]-1,25(OH)2D3; conditions: compared to 1α,25-dihydroxyvitamin D3; FIG. 1
T1 construct: Full-length recombinant rat receptor was expressed in E. coli; histidine tag (C); made in house; host or cells: E. coli BL21 (DE3) Codon Plus RIL
T1 sequence (P13053 1-423): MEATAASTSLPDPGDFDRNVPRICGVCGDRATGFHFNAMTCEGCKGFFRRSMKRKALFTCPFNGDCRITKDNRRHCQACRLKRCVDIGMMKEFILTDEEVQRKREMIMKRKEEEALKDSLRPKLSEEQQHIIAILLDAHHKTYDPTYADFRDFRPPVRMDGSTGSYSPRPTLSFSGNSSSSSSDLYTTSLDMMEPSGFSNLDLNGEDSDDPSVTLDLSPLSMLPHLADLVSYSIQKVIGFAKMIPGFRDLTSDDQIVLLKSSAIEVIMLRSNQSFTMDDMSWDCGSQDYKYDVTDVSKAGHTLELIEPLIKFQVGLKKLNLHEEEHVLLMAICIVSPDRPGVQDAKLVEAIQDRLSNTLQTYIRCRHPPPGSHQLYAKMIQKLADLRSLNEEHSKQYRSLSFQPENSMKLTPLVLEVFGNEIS
Method: Full-length recombinant rat receptor was expressed in E. coli BL21 (DE3) Codon Plus RIL cells and purified to homogeneity using two different column chromatography systems. The first system was a nickel affinity resin that utilizes the C-terminal histidine tag on this protein. […] Aliquots of the purified protein were quick frozen in liquid nitrogen and stored at −80° C. until use. For use in binding assays, the protein was diluted in TEDK50 (50 mM Tris, 1.5 mM EDTA, pH7.4, 5 mM DTT, 150 mM KCl) with 0.1% Chaps detergent. The receptor protein and ligand concentration was optimized such that no more than 20% of the added radiolabeled ligand was bound to the receptor.
Radiolabeled and unlabeled ligands were added to 100 mcl of the diluted protein at a final ethanol concentration of ≦10%, mixed and incubated overnight on ice to reach binding equilibrium. The following day, 100 mcl of hydroxylapatite slurry (50%) was added to each tube and mixed at 10-minute intervals for 30 minutes. The hydroxylapaptite was collected by centrifugation and then washed three times with Tris-EDTA buffer (50 mM Tris, 1.5 mM EDTA, pH 7.4) containing 0.5% Titron X-100. […] Total binding was determined from the tubes containing only radiolabeled ligand.

[8] = test system: OVCAR3 ovarian cancer cells; assay: Cell viability, OVCAR3 ovarian cancer cells; format: cell-based; conditions: four days growth, methylene blue; FIG. 8
Method: as §1

HL-60 cells = assay: HL-60 differentiation (nitro blue tetrazolium reduction); format: cell-based, human; conditions: FIG. 2
Method: The study drugs were dissolved in ethanol and the concentrations determined using UV spectrophotometry. Serial dilutions were prepared so that a range of drug concentrations could be tested without changing the final concentration of ethanol (≦0.2%) present in the cell cultures.
Human promyelocytic leukemia (HL60) cells were grown in RPMI-1640 medium containing 10% fetal bovine serum. The cells were incubated at 37° C. in the presence of 5% CO2.
HL60 cells were plated at 1.2×10^5 cells/ml. Eighteen hours after plating, cells in duplicate were treated with drug. Four days later, the cells were harvested and a nitro blue tetrazolium reduction assay was performed (Collins et al., 1979; J. Exp. Med. 149:969-974). The percentage of differentiated cells was determined by counting a total of 200 cells and recording the number that contained intracellular black-blue formazan deposits. Verification of differentiation to monocytic cells was determined by measuring phagocytic activity (data not shown).

[9] = Change in body weight of dosed animals; format: in vivo, rat; conditions: various doses; FIG. 11
Method: as §2

VDR binding activity relative to natural hormone (times less active) [7] | SMILES | Viability of HL-60 leukemia cells (HL-60 leukemia cells) | Viability of DU-145 prostate cells [1] | Viability of H-82 lung carcinoma cells [2] | Bone calcium mobilization (serum calcium) (vitamin D-deficient rats [3]; 35,100 pmol/day for 4 consecutive days, ip) | Viability of ROS 17/2.8 bone cancer cells [4] | Intestinal calcium transport activity (vitamin D-deficient rats [5]; 35,100 pmol/rat) | Transcriptional activity in bone cells (in words) ([6]; until very high doses are administered) | Viability of OVCAR3 ovarian cancer cells [8] | HL-60 cell differentiation (in words) (HL-60 cells) | Body weight throughout the test period [9] | Bone calcium mobilization (serum calcium) (vitamin D-deficient rats [3]; 4 consecutive ip doses) | Intestinal calcium transport activity (vitamin D-deficient rats [5]; 260 pmol and 780 pmol doses) | EC50 ([6]; ROS 17/2.8 cells, 16 h after dosing) [nM] | EC50 (HL-60 cells; four days after treatment, read-out: EC50, HL-60 cell differentiation) [nM]
at least 100 times less active | C=C1CC[C@H](O)C/C1=C/C=C1\CCC[C@]2(C)[C@@H]([C@H](C)CCCOS(=O)(=O)c3ccc(C)cc3)CC[C@@H]12 [TS-17, (20R)-25,26,27-trinor-24-(p-methylphenylsulfonate)-vitamin D3] | kills HL-60 leukemia cells | does not have any significant effect on the viability | kills H-82 lung carcinoma cells | little or no mobilization of bone calcium | does not have any significant effect on the viability | little to no activity | lacks any transcriptional activity | does not have any significant effect on the viability | does not promote HL60 differentiation | substantially maintain their body weight |  |  |  | 
 | C=C1/C(=C\C=C2/CCC[C@]3(C)[C@@H]([C@H](C)CCCC(C)(C)O)CC[C@@H]23)C[C@@H](O)C[C@@H]1O [1,25(OH)2D3, 1α,25-dihydroxyvitamin D3, reference compound] | does not have any significant effect on the viability |  | requires a significantly higher dose |  |  |  |  |  |  |  | significant increases in serum calcium | significant increase in activity | 0.1 | 2
